Assay results reported in patent publication US6040149A, “Assay for identifying agents which act on the ceramide-activated protein kinase, kinase suppressor of ras, and methods of using said agents” (priority 1997, dated 2000).

Legend:
[1] = molecular target: T1, KSR (Mus musculus, UniProt Q61097); assay: KSR autophosphorylation after treatment of COS-7 cells expressing KSR; assay type: cell-based, mouse (KSR expressed in COS-7 cells); details: TNFα 10 nM
T1 sequence (Q61097 1-873): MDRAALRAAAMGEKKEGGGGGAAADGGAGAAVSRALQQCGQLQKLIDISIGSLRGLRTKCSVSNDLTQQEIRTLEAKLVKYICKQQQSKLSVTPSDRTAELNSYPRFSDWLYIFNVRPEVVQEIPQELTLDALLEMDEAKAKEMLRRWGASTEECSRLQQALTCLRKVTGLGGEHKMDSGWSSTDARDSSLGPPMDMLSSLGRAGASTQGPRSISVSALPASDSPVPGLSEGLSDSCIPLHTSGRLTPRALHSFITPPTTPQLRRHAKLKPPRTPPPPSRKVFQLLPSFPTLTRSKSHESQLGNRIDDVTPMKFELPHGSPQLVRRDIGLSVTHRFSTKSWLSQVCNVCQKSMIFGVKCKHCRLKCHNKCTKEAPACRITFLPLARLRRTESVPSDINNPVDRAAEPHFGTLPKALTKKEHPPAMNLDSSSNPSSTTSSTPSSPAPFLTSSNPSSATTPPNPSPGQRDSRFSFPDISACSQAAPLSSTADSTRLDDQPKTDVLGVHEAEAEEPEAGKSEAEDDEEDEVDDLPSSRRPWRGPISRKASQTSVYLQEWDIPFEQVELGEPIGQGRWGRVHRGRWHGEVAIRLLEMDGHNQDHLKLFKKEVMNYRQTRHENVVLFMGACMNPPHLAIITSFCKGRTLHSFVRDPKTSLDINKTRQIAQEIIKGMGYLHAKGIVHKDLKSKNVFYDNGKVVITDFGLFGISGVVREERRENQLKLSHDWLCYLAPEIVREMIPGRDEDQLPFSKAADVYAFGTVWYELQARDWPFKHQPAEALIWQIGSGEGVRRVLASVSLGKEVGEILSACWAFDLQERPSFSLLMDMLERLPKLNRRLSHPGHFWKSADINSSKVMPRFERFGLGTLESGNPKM
Description: FIG. 23A--COS-7 cells were transfected as in FIG. 22A and placed in serum-free medium. After 4 hours, cells were stimulated for 10 min with the ceramide analog, C2-ceramide (Biomol), at the concentrations indicated. Cells were lysed with NP-40 lysis buffer, and Flag-tagged KSR (0.8 mg protein for each point) was immunoprecipitated and assayed for autophosphorylation activity as described in Experimental Procedures. The autoradiogram was exposed for 1 hour. KSR is expressed at similar levels in each sample as monitored by Western blot (data not shown). Data represent one of three similar experiments.
COS-7 cells expressing Flag-tagged KSR were stimulated with 10 nM TNFα for the times indicated and lysed with NP-40 buffer as in FIG. 2A. […] The autoradiogram was exposed for 1 hour. Data represent one of three similar experiments.
KSR was immunoprecipitated as above from 0.8 mg NP-40 lysate protein with 40 μl agarose-conjugated anti-Flag antibody at 4° C. for 4 hrs or overnight. […] The reaction was stopped by addition of Laemmli sample buffer. Samples were resolved by 7.5% sodium dodecyl sulfate-polyacrylamide gel electrophoresis (SDS-PAGE) and autoradiographed.

[2] = test system: ceramide-activated protein kinase; details: ref. [40]; cited from earlier work
[3] = test system: ceramide-activated protein kinase; assay: EGFR peptide phosphorylation by kinase in A-431 microsomal membranes / postnuclear supernatant; assay type: biochemical, human (A-431 epidermoid carcinoma cells)

| Compound | KSR autophosphorylating activity [1] | time to maximal effect ([1]; autophosphorylation, Raf-1 phosphorylation and activation) | ED50 for stimulation of ceramide-activated protein kinase in intact cells [2] | EGFR peptide phosphorylation, fold of control ([3]; 2 minutes of stimulation, maximal effect for ceramide at 1 μM) | effect on EGFR peptide phosphorylation ([3]; words) |
| --- | --- | --- | --- | --- | --- |
| TNF-α | time-dependent enhancement | ≤ 20 min | 0.2 nM |  |  |
| CCCCCCCCCCCCC/C=C/[C@@H](O)[C@@H](N)CO [sphingosine] |  |  |  | 1.6 fold of control | similarly effective |
